{
  "source": "patent US8592394B2",
  "about": "“Synthetic derivatives beta glycolipids and compositions thereof for the treatment of pathologic disorders” (Enzo Therapeutics, Inc., priority 2003, dated 2013)",
  "system": "IL-4",
  "test": "Serum IL-4 by ELISA in ConA induced hepatitis",
  "format": "in vivo, mice",
  "conditions": "intraperitoneal, data not shown",
  "experimental": "Serum levels of IFN-γ, TGF-β, TNF-α IL-2, IL-4, IL-6, IL-10 and IL-12 were determined by “sandwich” ELISA, using commercial kits (Quantikine, R&D Systems, Minneapolis, Minn., USA). Serum insulin was also determined by “sandwich” ELISA too, using the commercial kit of Mercodia AB (Uppsala, Sweden) according to the manufacturer's instructions.",
  "data": [
    {"smiles": "CCCCCCCCCCCCCC=CC(O)C(CO[C@@H]1OC(CO)[C@@H](O)C(O)C1O)NC(=S)NC12CC3CC(CC(C3)C1)C2", "note": "(stereo in doubt) [ALIB-97, N-adamantyl-N′-glucosylsphingosine thiourea]", "values": [
      {"measurement": "serum levels of IL-4", "result": "did not affect"}
    ]}
  ]
}
